Source: patent publication US8754242B2, “Herbicides” (Syngenta Crop Protection LLC, priority 2007, dated 2014)

Assays:
Assay type in all cases: in vivo
[1] = system: Alopecurus myosuroides (ALOMY); test: Test Example 1 pre-emergence herbicidal activity; conditions: Alopecurus myosuroides, 480 h, rate 250 g/ha, evaluated 20 days later, read-out: Pre-emergence activity ALOMY (100=total damage to plant; 0=no damage to plant)
In short: (§1)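 Sow in pots of standard soil → grow 1 day (pre-emergence) or 10 days (post-emergence) in glasshouse → spray aqueous formulated compound → grow on under optimum conditions → score damage 0–100 at day 20 (pre) or day 15 (post).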

[2] = system: Avena fatua (AVEFA); test: Test Example 1 pre-emergence herbicidal activity; conditions: Avena fatua, 480 h, rate 250 g/ha, evaluated 20 days later, read-out: Pre-emergence activity AVEFA (100=total damage to plant; 0=no damage to plant)
In short: as §1

[3] = system: Echinochloa crus-galli (ECHCG); test: Test Example 1 pre-emergence herbicidal activity; conditions: Echinochloa crus-galli, 480 h, rate 250 g/ha, evaluated 20 days later, read-out: Pre-emergence activity ECHCG (100=total damage to plant; 0=no damage to plant)
In short: as §1

[4] = system: Setaria faberi (SETFA); test: Test Example 1 pre-emergence herbicidal activity; conditions: Setaria faberi, 480 h, rate 250 g/ha, evaluated 20 days later, read-out: Pre-emergence activity SETFA (100=total damage to plant; 0=no damage to plant)
In short: as §1

[5] = system: Lolium perenne (LOLPE); test: Test Example 1 pre-emergence herbicidal activity; conditions: Lolium perenne, 480 h, rate 250 g/ha, evaluated 20 days later, read-out: Pre-emergence activity LOLPE (100=total damage to plant; 0=no damage to plant)
In short: as §1

[6] = system: Digitaria sanguinalis (DIGSA); test: Test Example 1 pre-emergence herbicidal activity; conditions: Digitaria sanguinalis, 480 h, rate 250 g/ha, evaluated 20 days later, read-out: Pre-emergence activity DIGSA (100=total damage to plant; 0=no damage to plant)
In short: as §1

[7] = system: Alopecurus myosuroides (ALOMY); test: Test Example 1 post-emergence herbicidal activity; conditions: 360 h, rate 125 g/ha, evaluated 15 days later, read-out: Post-emergence activity ALOMY (100=total damage to plant; 0=no damage to plant)
In short: as §1

[8] = system: Avena fatua (AVEFA); test: Test Example 1 post-emergence herbicidal activity; conditions: 360 h, rate 125 g/ha, evaluated 15 days later, read-out: Post-emergence activity AVEFA (100=total damage to plant; 0=no damage to plant)
In short: as §1

[9] = system: Echinochloa crus-galli (ECHCG); test: Test Example 1 post-emergence herbicidal activity; conditions: 360 h, rate 125 g/ha, evaluated 15 days later, read-out: Post-emergence activity ECHCG (100=total damage to plant; 0=no damage to plant)
In short: as §1

[10] = system: Setaria faberi (SETFA); test: Test Example 1 post-emergence herbicidal activity; conditions: 360 h, rate 125 g/ha, evaluated 15 days later, read-out: Post-emergence activity SETFA (100=total damage to plant; 0=no damage to plant)
In short: as §1

[11] = system: Lolium perenne (LOLPE); test: Test Example 1 post-emergence herbicidal activity; conditions: 360 h, rate 125 g/ha, evaluated 15 days later, read-out: Post-emergence activity LOLPE (100=total damage to plant; 0=no damage to plant)
In short: as §1

[12] = system: Digitaria sanguinalis (DIGSA); test: Test Example 1 post-emergence herbicidal activity; conditions: 360 h, rate 125 g/ha, evaluated 15 days later, read-out: Post-emergence activity DIGSA (100=total damage to plant; 0=no damage to plant)
In short: as §1

| Structure (SMILES) | pest or weed control at 250 g/ha [1] | pest or weed control at 250 g/ha [2] | pest or weed control at 250 g/ha [3] | pest or weed control at 250 g/ha [4] | pest or weed control at 250 g/ha [5] | pest or weed control at 250 g/ha [6] | pest or weed control at 125 g/ha [7] | pest or weed control at 125 g/ha [8] | pest or weed control at 125 g/ha [9] | pest or weed control at 125 g/ha [10] | pest or weed control at 125 g/ha [11] | pest or weed control at 125 g/ha [12] |
| --- | --- | --- | --- | --- | --- | --- | --- | --- | --- | --- | --- | --- |
| CCc1cc(C)cc(CC)c1C1=C(OC(=O)C(C)C)[C@H]2[C@@H](C1=O)[C@@H]1CC[C@H]2O1 [Example P26] | 100% | 90% | 100% | 100% | 100% | 100% | 100% | 100% | 100% | 100% | 90% | 100% |
| CCc1cc(C)cc(CC)c1C1=C(O)C2[C@@H](C1=O)[C@@H]1C[C@@H](c3ccc(OC)cc3)[C@H]2O1 (stereo partly drawn) [Example T156] | 70% | 60% | 70% | 70% | 70% | 70% | 90% | 80% | 100% | 100% | 70% | 70% |
| CCC1=NOC2C1[C@@H]1O[C@H]2[C@H]2C(O)=C(c3c(CC)cc(C)cc3CC)C(=O)[C@H]21 (stereo partly drawn) [Example T15] | 40% | 20% | 80% | 60% | 40% | 30% | 50% | 40% | 80% | 50% | 40% | 80% |
| Cc1cc(C)c(C2=C(O)[C@@H]3[C@@H]4O[C@@H](C[C@@H]4C)[C@@H]3C2=O)c(C)c1 [Example T97] | 100% | 90% | 100% | 90% | 100% | 100% | 90% | 90% | 100% | 100% | 80% | 100% |
| CCc1cc(C)cc(CC)c1C1=C(OC(=O)CCCCCCC(=O)OC)[C@H]2[C@@H](C1=O)[C@@H]1CC[C@H]2O1 [Example P16] | 100% | 90% | 100% | 100% | 90% | 100% | 100% | 90% | 100% | 100% | 100% | 100% |
| CCc1cc(C)cc(CC)c1C1=C(O)[C@@H]2[C@@H]3O[C@@H](C[C@H]3c3cccc(OC)c3)[C@@H]2C1=O [Example T153] | 70% | 70% | 70% | 70% | 80% | 60% | 50% | 80% | 70% | 20% | 50% | 30% |
| CCc1cc(C)cc(CC)c1C1=C(O)[C@@H]2[C@@H]3O[C@@H](C[C@H]3c3cc([N+](=O)[O-])ccc3C)[C@@H]2C1=O (racemic) [Example T184] | 30% | 60% | 60% | 90% | 70% | 70% | 10% | 0% | 100% | 50% | 10% | 20% |
| CCC(=O)OC1=C(c2c(CC)cc(C)cc2CC)C(=O)[C@@H]2[C@H]1[C@H]1CC[C@@H]2O1 (racemic) [Example P22] | 100% | 100% | 100% | 100% | 100% | 100% | 100% | 100% | 100% | 100% | 100% | 100% |
| Cc1cc(C)c(C2=C(O)[C@@H]3[C@@H]4O[C@@H](C[C@H]4c4ccc(C(F)(F)F)nc4)[C@@H]3C2=O)c(C)c1 (racemic) [Example T128] | 70% | 70% | 100% | 100% | 90% | 100% | 80% | 90% | 100% | 100% | 80% | 100% |
| CCc1cc(C)cc(CC)c1C1=C(O)[C@@H]2[C@@H]3O[C@@H](C[C@H]3c3ccc(OC(F)(F)F)cc3)[C@@H]2C1=O (racemic) [Example T159] | 50% | 60% | 70% | 70% | 40% | 70% | 90% | 70% | 100% | 100% | 40% | 100% |
| Cc1cc(C)c(C2=C(O)[C@H]3[C@@H](C2=O)[C@]2(C)CC[C@@]3(C)O2)c(C)c1 [Example T6] | 80% | 30% | 90% | 80% | 100% | 90% | 80% | 80% | 90% | 80% | 80% | 90% |
| Cc1cc(C)c(C2=C(O)[C@H]3[C@@H](C2=O)[C@@H]2CC[C@@]3(CO)O2)c(C)c1 [Example T49] | 80% | 70% | 80% | 20% | 100% | 10% | 80% | 80% | 80% | 50% | 70% | 70% |
| CCc1cc(C)cc(CC)c1C1=C(O)[C@@H]2[C@@H]3O[C@@H](C[C@H]3c3cc(F)cc(F)c3)[C@@H]2C1=O [Example T173] | 90% | 70% | 70% | 60% | 100% | 70% | 100% | 90% | 100% | 90% | 90% | 70% |
